The target in assay [1] is recombinant human cannabinoid 1 receptor (CB1) (Homo sapiens, UniProt P21554). The assay can be described thus: In vitro determination of antagonism to CB1-receptor ([35S]GTPγS binding assay, CHO cell membranes). The assay is classed as biochemical. The following applies: compound at 1 μM against agonist WIN 55,212-2 (3 nM to 3 μM), effect of Rimonabant (1 μM) defined as 100%. As to the method: Chinese hamster ovary (CHO) cells stably expressing recombinant human cannabinoid 1 receptor (CB1) were cultured in nutrient mixture Ham's F 12 supplemented with 10% heat-inactivated fetal bovine serum, 2 mM L-glutamine, 50 U/ml penicillin, 50 U/ml streptomycin and 0.5 mg/ml geneticin. In order to obtain cells, culture flasks were washed twice with phosphate buffered saline and scraped. Then, cells were collected by centrifugation (200×g, 10 min) and stored dry at −80° C. Cells were homogenized in ice-cold 20 mM HEPES, 10 mM EDTA (pH 7.5) and centrifuged at 40,000×g for 15 min at 4° C. The membrane pellet was resuspended in 20 mM HEPES, 0.1 mM EDTA (pH 7.5) and centrifuged for 15 min at 4° C. The final membrane pellet was resuspended in 20 mM HEPES, 0.1 mM EDTA (pH 7.5), and divided in aliquots and stored at −80° C. until use.
Chain of recombinant human cannabinoid 1 receptor (CB1) (P21554 whole entry): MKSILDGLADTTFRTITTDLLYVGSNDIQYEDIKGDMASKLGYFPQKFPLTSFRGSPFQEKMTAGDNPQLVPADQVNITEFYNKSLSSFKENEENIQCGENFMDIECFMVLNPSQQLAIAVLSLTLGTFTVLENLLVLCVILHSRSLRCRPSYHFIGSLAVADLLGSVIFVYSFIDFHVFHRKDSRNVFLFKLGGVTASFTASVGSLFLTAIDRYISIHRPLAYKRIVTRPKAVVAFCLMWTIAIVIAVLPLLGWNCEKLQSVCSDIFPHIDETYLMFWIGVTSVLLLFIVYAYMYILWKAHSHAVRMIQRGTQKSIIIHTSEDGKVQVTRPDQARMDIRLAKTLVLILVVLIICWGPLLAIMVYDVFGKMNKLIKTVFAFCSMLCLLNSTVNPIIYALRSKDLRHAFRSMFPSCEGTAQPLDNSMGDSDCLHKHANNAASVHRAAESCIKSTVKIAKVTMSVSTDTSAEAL
The reaction was performed in 96-well plates. Membranes (15 μg protein/well) were incubated for 60 min at 30° C. in buffer (50 mM HEPES, 100 mM KCl, 5 mM MgCl2,1 mM EDTA, 0.1% wt/vol bovine serum albumin, 5 μM GDP, saponin (10 μg/ml), 0.5 nM [^35S]GTPγS, pH 7.4) with compound at a final concentration of 1 μM in either the absence or presence of agonist WIN 55, 212-2 between 3 nM and 3 μM. The incubation was terminated by rapid filtration through Millipore Multiscreen glass fiber FB, and rinsed two-times with ice-cold assay buffer. Filter plates were dried and 30 μl of scintillation liquid was added. Radioactivity was determined using a Wallac Microbeta Trilux. Each experiment was performed at least in duplicate. A WIN 55, 212-2 dose-response experiment either alone or in the presence of Rimonabant (1 μM) was systematically performed.
The average of basal [^35S]GTPγS binding was subtracted from all binding data. In order to compare the antagonism results from one screening campaign to another one, the difference between the maximal agonist effect of WIN 55, 212-2 alone, and the maximal antagonism effect due to WIN 55, 212-2 plus Rimonabant (1 μM) was defined as 100%.

Assay [2] concerns the target T1, CB1 receptor (UniProt P20272).
T1 construct: other: compound at 10^−7 M; radioligand [3H]-CP55940; other: compound at 10^−8 M
The assay can be described thus: In-vitro determination of affinity to CB1/CB2-receptors (radioligand [3H]-CP55940 binding). The following applies: for Inhibition [%], 10^−7 M: compound at 10^−7 M; for Inhibition [%], 10^−8 M: compound at 10^−8 M. As to the method:
The in-vitro determination of the affinity of the inventive substituted pyrazoline compounds to CB1/CB2-Rezeptors is carried out as described in the publication of Ruth A. Ross, Heather C. Brockie et al., “Agonist-inverse agonist characterization at CB1 and CB2 cannabinoid receptors of L-759633, L759656 and AM630”, British Journal of Pharmacology, 126, 665-672, (1999), whereby the transfected human CB1 and CB2 receptors of Receptor Biology, Inc. are used. The radioligand used for both receptors is [^3H]-CP55940. The respective parts of the description is hereby incorporated by reference and forms part of the present disclosure.
Binding affinity to CB1 receptor was evaluated according to a modification of the method described by Govaerts et al., Eur J Pharmac Sci 23, 233-243 (2004). The respective parts of the description is hereby incorporated by reference and forms part of the present disclosure.
Briefly, cerebellum from male wistar rats (250-300 g) were carefully dissected on ice and homogenates were prepared with Potter-Helveheim in a cold 50 mM Tris-HCl solution containing 5 mM MgCl2, 1 mM EDTA and 0.25 M sucrose, pH 7.4. The suspension was centrifuged at 1,000×g for 5 minutes. The supernatants were collected and centrifuged 50,000×g for 15 minutes. The resulting pellets were then resuspended in Tris-HCl buffer without sucrose, homogenized and incubated for 15 min at 37° C. in an orbital shaker bath and centrifuged again at 50,000×g for 15 min. Pellets were weighted, resuspended in Tris-HCl buffer without sucrose, homogenized with Ultraturrax at 13,500 rpm for 3×5 seconds and alicuoted in 0.9 ml volumes in Eppendorf tubes. Alicuotes were centrifuged at 20,800×g for 5 minutes, supernatants discarded and pellets were frozen at −80° C. until use. Total protein concentration was determined using the Bio-Rad Lowry method based kit. Competitive binding experiments were performed in presence of 1 nM [^3H]-CP 55,940 in siliconized glass tubes containing 100 μg protein/tube resuspended in 1 ml final volume of 50 mM Tris-HCl, 5 mM MgCl2, 1 mM EDTA, 0.5% (w/v) bovine serum albumin, pH 7.4. Compounds were present at various concentrations and the non specific binding was determined in the presence of 10 μM HU-210. After 1 hour incubation at 30° C., the suspension was rapidly filtered through 0.5% PEI pre-treated GF/B fiber filters on a 96-well harvester and washed 3 times with 3 ml ice-cold binding buffer without bovine serum albumin. Radioactivity on filters was measured with Wallac Winspectral 1414 counter by liquid scintillation in 6 ml Ecoscint H (National Diagnostics, U.K.). Assays were made in triplicates.
Binding data were analyzed by non-linear regression with the software GraphPad Prism Version 3.03.

Where a name gives a salt, the structure may show the parent alone.

As for `O=C(NN1CCOCC1)C1=NN(c2ccc(Cl)cc2Cl)C(c2ccc(Cl)cc2)C1` (stereo not drawn) [Example 8, 5-(4-Chloro-phenyl)-1-(2,4-dichloro-phenyl)-4,5-dihydro-1H-pyrazole-3-carboxylic acid morpholin-4-ylamide], the “Antagonism [%]” value in assay [1] was found to be 54%. For the same molecule, in assay [2], the “Inhibition [%], 10^−7 M” value is listed as 21.9% and the “Inhibition [%], 10^−8 M” value is recorded as −8.2%.

For the molecule `O=C(NC1CCCCC1)C1=NN(c2ccc(Cl)cc2Cl)C(c2ccc(Cl)cc2)C1` (stereo not drawn) [Example 41, 5-(4-Chloro-phenyl)-1-(2,4-dichloro-phenyl)-4,5-dihydro-1H-pyrazole-3-carboxylic acid cyclohexylamide], in assay [1], the “Antagonism [%]” value turned out to be 69%. For the same molecule, in assay [2], the “Inhibition [%], 10^−7 M” value came to 3.4% and the “Inhibition [%], 10^−8 M” value was −5.2%.

`O=C(O)[C@@H]1CCCN1C(=O)C1=NN(c2ccc(Cl)cc2Cl)C(c2ccc(Cl)cc2)C1` (stereo partly drawn) [Example 53, 1-[5-(4-Chloro-phenyl)-1-(2,4-dichloro-phenyl)-4,5-dihydro-1H-pyrazole-3-carbonyl]-pyrrolidine-2-carboxylic acid]: the “Antagonism [%]” value in assay [1] is on record as 14%.

As for `O=C(C1=NN(c2ccc(Cl)cc2Cl)C(c2ccc(Cl)cc2)C1)N1CCOCC1` (stereo not drawn) [Example 54, [5-(4-Chloro-phenyl)-1-(2,4-dichloro-phenyl)-4,5-dihydro-1H-pyrazol-3-yl]-morpholin-4-yl-methanone], the “Antagonism [%]” value in assay [1] is reported as 46%.

Turning to `CC(C)N(C(=O)C1=NN(c2ccc(Cl)cc2Cl)C(c2ccc(Cl)cc2)C1)C1CCCCC1` (stereo not drawn) [Example 55, 5-(4-Chloro-phenyl)-1-(2,4-dichloro-phenyl)-4,5-dihydro-1H-pyrazole-3-carboxylic acid cyclohexyl-isopropyl-amide], the “Antagonism [%]” value in assay [1] was 30%.

In the case of `O=C(C1=NN(c2ccc(Cl)cc2Cl)C(c2ccc(Cl)cc2)C1)N1CCc2sccc2C1` (stereo not drawn) [Example 56, [5-(4-Chloro-phenyl)-1-(2,4-dichloro-phenyl)-4,5-dihydro-1H-pyrazol-3-yl]-(6,7-dihydro-4H-thieno[3,2-c]pyridin-5-yl)-methanone], the “Antagonism [%]” value in assay [1] amounted to 44%.

With `CC1(C)[C@@H]2CC[C@@]1(C)[C@@H](NC(=O)C1=NN(c3ccc(Cl)cc3Cl)C(c3ccc(Cl)cc3)C1)C2` (stereo partly drawn) [Example 58, 5-(4-Chloro-phenyl)-1-(2,4-dichloro-phenyl)-4,5-dihydro-1H-pyrazole-3-carboxylic acid (1,7,7-trimethyl-bicyclo[2.2.1]hept-2-yl)-amide], in assay [1], the “Antagonism [%]” value was found to be 47%.

Regarding `CCC1CCC(C)N(C(=O)C2=NN(c3ccc(Cl)cc3Cl)C(c3ccc(Cl)cc3)C2)C1` (stereo not drawn) [Example 59, [5-(4-Chloro-phenyl)-1-(2,4-dichloro-phenyl)-4,5-dihydro-1H-pyrazol-3-yl]-(5-ethyl-2-methyl-piperidin-1-yl)-methanone], the “Antagonism [%]” value in assay [1] was 60%.

Regarding `O=C(NN1CCCC1)C1=NN(c2ccc(Cl)cc2Cl)C(c2ccc(Br)cc2)C1` (stereo not drawn) [Example 61, 5-(4-Bromo-phenyl)-1-(2,4-dichloro-phenyl)-4,5-dihydro-1H-pyrazole-3-carboxylic acid pyrrolidin-1-ylamide], the “Antagonism [%]” value in assay [1] is 75%.

Take `CC1CCCC(C)N1NC(=O)C1=NN(c2ccc(Cl)cc2Cl)C(c2ccc(Br)cc2)C1` (stereo not drawn) [Example 62, 5-(4-Bromo-phenyl)-1-(2,4-dichloro-phenyl)-4,5-dihydro-1H-pyrazole-3-carboxylic acid (2,6-dimethyl-piperidin-1-yl)-amide]: in assay [1], the “Antagonism [%]” value turned out to be 67%.

For the molecule `O=C(NN1CCOCC1)C1=NN(c2ccc(Cl)cc2Cl)C(c2ccc(Br)cc2)C1` (stereo not drawn) [Example 67, 5-(4-Bromo-phenyl)-1-(2,4-dichloro-phenyl)-4,5-dihydro-1H-pyrazole-3-carboxylic acid morpholin-4-ylamide], in assay [1], the “Antagonism [%]” value is listed as 52%.

Regarding `COC(=O)C1=NN(c2ccc(Cl)cc2Cl)C(c2ccc(Cl)cc2)C1` (stereo not drawn) [Example 115, 5-(4-Chloro-phenyl)-1-(2,4-dichloro-phenyl)-4,5-dihydro-1H-pyrazole-3-carboxylic acid methyl ester], in assay [1], the “Antagonism [%]” value came to 23%. Further, in assay [2], the “Inhibition [%], 10^−7 M” value is listed as −4.3% and the “Inhibition [%], 10^−8 M” value is recorded as 1.9%.

With `CCOC(=O)C1=NN(c2ccc(Cl)cc2Cl)C(c2ccc(Cl)cc2)C1` (stereo not drawn) [Example 120, 5-(4-Chloro-phenyl)-1-(2,4-dichloro-phenyl)-4,5-dihydro-1H-pyrazole-3-carboxylic acid ethyl ester], in assay [1], the “Antagonism [%]” value came to 30%. For the same molecule, in assay [2], the “Inhibition [%], 10^−7 M” value is reported as 7.1% and the “Inhibition [%], 10^−8 M” value is listed as −4.1%.

Take `O=C(O)C1=NN(c2ccc(Cl)cc2Cl)C(c2ccc(F)cc2)C1` (stereo not drawn) [Example 126, 1-(2,4-Dichloro-phenyl)-5-(4-fluoro-phenyl)-4,5-dihydro-1H-pyrazole-3-carboxylic acid]: the “Antagonism [%]” value in assay [1] was 30%.

Regarding `O=C(O)C1=NN(c2ccc(Cl)cc2Cl)C(c2ccc(Br)cc2)C1` (stereo not drawn) [Example 128, 5-(4-Bromo-phenyl)-1-(2,4-dichloro-phenyl)-4,5-dihydro-1H-pyrazole-3-carboxylic acid], the “Antagonism [%]” value in assay [1] is listed as 18%.

In the case of `O=C(NCC1CCCCCC1)C1=NN(c2ccc(Cl)cc2Cl)C(c2ccc(Cl)cc2)C1` (stereo not drawn) [Example 191, 5-(4-Chloro-phenyl)-1-(2,4-dichloro-phenyl)-4,5-dihydro-1H-pyrazole-3-carboxylic acid cycloheptylmethyl-amide], the “Antagonism [%]” value in assay [1] was determined as 82%. For the same molecule, in assay [2], the “Inhibition [%], 10^−7 M” value was 67.4% and the “Inhibition [%], 10^−8 M” value was 30.2%.

`O=C(NN1CC2CCCC2C1)C1=NN(c2ccc(Cl)cc2Cl)C(c2ccc(Cl)cc2)C1` (stereo not drawn) [Example 193, 5-(4-Chloro-phenyl)-1-(2,4-dichloro-phenyl)-4,5-dihydro-1H-pyrazole-3-carboxylic acid (hexahydro-cyclopenta[c]pyrrol-2-yl)-amide hydrochloride]: in assay [1] (hydrochloride), the “Antagonism [%]” value is on record as 115%.

Take `Cl.O=C(NN1CCCC1)C1=NN(c2ccc(Cl)cc2Cl)C(c2ccc(Cl)cc2)C1` (stereo not drawn) [Example 194, 5-(4-Chloro-phenyl)-1-(2,4-dichloro-phenyl)-4,5-dihydro-1H-pyrazole-3-carboxylic acid pyrrolidin-1-ylamide hydrochloride]: the “Antagonism [%]” value in assay [1] is 82%. Besides, in assay [2], the “Inhibition [%], 10^−7 M” value turned out to be 41.7% and the “Inhibition [%], 10^−8 M” value came to 22.9%.
